Experimental data published in ChEMBL document CHEMBL4823284, “Design, synthesis and biological evaluation of double fatty chain-modified glucagon-like peptide-1 conjugates” (Bioorg Med Chem, 2021).
Calls of active or inactive are those of the source. No cut-off for these calls is given here.

Assays:
[1] = molecular target: T1, Glucagon-like peptide 1 receptor (Homo sapiens, UniProt P43220); test: Binding affinity to GLP1R (unknown origin) assessed as binding rate constant by surface plasmon resonance analysis; conditions: filed as activator
T1 sequence (P43220 whole entry): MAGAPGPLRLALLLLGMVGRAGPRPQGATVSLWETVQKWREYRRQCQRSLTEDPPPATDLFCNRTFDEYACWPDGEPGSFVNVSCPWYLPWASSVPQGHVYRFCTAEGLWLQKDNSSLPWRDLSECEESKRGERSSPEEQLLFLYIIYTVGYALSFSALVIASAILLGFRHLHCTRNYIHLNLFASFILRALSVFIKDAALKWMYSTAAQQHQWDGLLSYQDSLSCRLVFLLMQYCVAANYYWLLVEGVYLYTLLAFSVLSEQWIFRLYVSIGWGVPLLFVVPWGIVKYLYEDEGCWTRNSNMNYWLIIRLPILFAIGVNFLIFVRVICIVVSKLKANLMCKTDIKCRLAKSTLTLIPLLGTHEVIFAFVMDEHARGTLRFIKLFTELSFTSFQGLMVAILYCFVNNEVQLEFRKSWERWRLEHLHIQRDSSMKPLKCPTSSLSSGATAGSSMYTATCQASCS

Mus musculus [2] = test: Hypoglycemic effect in intragastric starch treated mouse assessed as reduction in blood glucose level at 30 nmol/kg, sc measured at 1.5 hrs; type: functional, organism-based
[3] = molecular target: T1, Glucagon-like peptide 1 receptor; test: Binding affinity to GLP1R (unknown origin) assessed as dissociation rate constant by surface plasmon resonance analysis
Mus musculus [4] = test: Hypoglycemic effect in intragastric starch treated mouse assessed as decrease in glucose AUC at 30 nmol/kg, sc measured up to 24 hrs; type: functional, organism-based; conditions: time hrs <=24
Albumin = Albumin (Homo sapiens, UniProt P02768); test: Binding affinity to albumin (unknown origin) after 8 hrs by HPLC analysis; type: ADME; parameters: concentration or dose not given beside the values; conditions: isolated protein
Albumin, sequence (P02768 whole entry): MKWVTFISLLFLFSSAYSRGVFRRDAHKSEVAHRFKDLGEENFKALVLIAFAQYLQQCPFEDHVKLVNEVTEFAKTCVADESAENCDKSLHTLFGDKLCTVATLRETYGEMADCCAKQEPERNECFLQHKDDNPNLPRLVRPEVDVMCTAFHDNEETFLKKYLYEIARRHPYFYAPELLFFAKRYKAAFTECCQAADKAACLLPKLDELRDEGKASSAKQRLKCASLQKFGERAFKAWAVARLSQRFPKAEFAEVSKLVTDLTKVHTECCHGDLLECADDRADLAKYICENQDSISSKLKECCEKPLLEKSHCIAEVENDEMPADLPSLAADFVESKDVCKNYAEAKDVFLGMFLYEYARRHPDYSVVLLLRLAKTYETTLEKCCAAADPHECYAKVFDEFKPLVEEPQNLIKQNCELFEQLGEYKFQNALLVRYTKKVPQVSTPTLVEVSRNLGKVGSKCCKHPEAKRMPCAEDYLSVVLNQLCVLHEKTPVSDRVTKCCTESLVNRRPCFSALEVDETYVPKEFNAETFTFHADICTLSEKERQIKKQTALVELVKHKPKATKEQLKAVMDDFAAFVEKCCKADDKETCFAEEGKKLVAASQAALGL

[5] = molecular target: T1, Glucagon-like peptide 1 receptor; test: Binding affinity to GLP1R (unknown origin) assessed as equilibrium constant by surface plasmon resonance analysis; conditions: filed as activator
[6] = molecular target: T1, Glucagon-like peptide 1 receptor; test: Activation of GLP1R (unknown origin) CRE-bla expressed in CHO-K1 cells assessed as receptor potency incubated for 1 hrs by time resolved fluorescence resonance energy transfer immunoassay; type: functional, cell-based
[7] = Toxicity in mouse assessed as change in body weight at 30 nmol/kg, sc measured at 1.5 hrs; type: organism-based; conditions: in vivo
Mus musculus [8] = test: Hypoglycemic effect in intragastric starch treated mouse assessed as reduction in blood glucose level at 30 nmol/kg, sc measured up to 24 hrs; type: functional, organism-based; conditions: time hrs <=24

Row | Ka [1] | Dissociation rate constant (koff) [3] | Activity (Albumin) | Ke [5] | EC50 [6] | Compound | Activity (Mus musculus [2]) | Activity (Mus musculus [4]) | Activity [7] | Activity (Mus musculus [8])
1 | 5.97 10^2/Ms | 8.57 10^-3/s | 94.3% | 1.44 10^-5M | 0.0101 nM | CCCCCCCCCCCC(=O)N[C@@H](CCC(=O)NCCCC[C@H](NC(=O)CC[C@H](NC(=O)CCCCCCCCCCC)C(=O)O)C(=O)NCCOCCOCC(=O)NCCOCCOCC(=O)O)C(=O)O | Active | Active | Toxic | Active
2 | 1.11 10^3/M/s | 6.5 10^-3/s | > 99% | 5.85 10^-6M | 0.0142 nM | CCCCCCCCCCCC(=O)N[C@@H](CCC(=O)NCCCC[C@H](NC(=O)CC[C@H](NC(=O)CCCCCCCCCCC)C(=O)O)C(=O)NCCOCCOCC(=O)O)C(=O)O | Active | Active | Toxic | Active
3 | – | – | 90.2% | – | 0.2 nM | CCCCCCCCCC(=O)N[C@@H](CCC(=O)NCCCC[C@H](NC(=O)CC[C@H](NC(=O)CCCCCCCCC)C(=O)O)C(=O)NCCOCCOCC(=O)NCCOCCOCC(=O)O)C(=O)O | – | – | – | –
4 | – | – | – | – | 0.0723 nM | CCCCCCCCCCCCCCCC(=O)N[C@@H](CCC(=O)NCCCC[C@H](NC(=O)CC[C@H](NC(=O)CCCCCCCCCCCCCCC)C(=O)O)C(=O)NCCOCCOCC(=O)O)C(=O)O | – | – | – | –
5 | – | – | – | – | 0.0788 nM | CCCCCCCCCCCCCCCC(=O)N[C@@H](CCC(=O)NCCCC[C@H](NC(=O)CC[C@H](NC(=O)CCCCCCCCCCCCCCC)C(=O)O)C(=O)NCCOCCOCC(=O)NCCOCCOCC(=O)O)C(=O)O | – | – | – | –
6 | – | – | 94.5% | – | 0.143 nM | CCCCCCCCCC(=O)N[C@@H](CCC(=O)NCCCC[C@H](NC(=O)CC[C@H](NC(=O)CCCCCCCCC)C(=O)O)C(=O)NCCOCCOCC(=O)O)C(=O)O | – | – | – | –
7 | – | – | – | – | 0.0096 nM | CCCCCCCCCCCCCC(=O)N[C@@H](CCC(=O)NCCCC[C@H](NC(=O)CC[C@H](NC(=O)CCCCCCCCCCCCC)C(=O)O)C(=O)NCCOCCOCC(=O)O)C(=O)O | Active | – | Toxic | Active
8 | 9.24 10^4/Ms | – | – | 1.33 10^-6M | – | SEMAGLUTIDE [listing 1 of 2 here] | Active | Active | – | Active
9 | – | – | > 99% | – | – | SEMAGLUTIDE [listing 2 of 2 here] | – | – | Toxic | –
10 | – | – | – | – | 0.0274 nM | CCCCCCCCCCCCCCCC(=O)N[C@@H](CCC(=O)NCCCC[C@H](NC(=O)CC[C@H](NC(=O)CCCCCCCCCCCCCCC)C(=O)O)C(=O)NCCOCCOCC(=O)NCCOCCOCC(=O)NCCOCCOCC(=O)O)C(=O)O | – | – | – | –
11 | 3.26 10^3/M/s | 2.37 10^-2/s | 91.6% | 7.25 10^-6M | 0.0051 nM | CCCCCCCCCCCC(=O)N[C@@H](CCC(=O)NCCCC[C@H](NC(=O)CC[C@H](NC(=O)CCCCCCCCCCC)C(=O)O)C(=O)NCCOCCOCC(=O)NCCOCCOCC(=O)NCCOCCOCC(=O)O)C(=O)O | Active | Active | Toxic | Active
12 | – | – | – | – | 0.0016 nM | CCCCCCCCCCCCCC(=O)N[C@@H](CCC(=O)NCCCC[C@H](NC(=O)CC[C@H](NC(=O)CCCCCCCCCCCCC)C(=O)O)C(=O)NCCOCCOCC(=O)NCCOCCOCC(=O)NCCOCCOCC(=O)O)C(=O)O | Active | Active | Toxic | Active
13 | – | – | 86% | – | 0.132 nM | CCCCCCCCCC(=O)N[C@@H](CCC(=O)NCCCC[C@H](NC(=O)CC[C@H](NC(=O)CCCCCCCCC)C(=O)O)C(=O)NCCOCCOCC(=O)NCCOCCOCC(=O)NCCOCCOCC(=O)O)C(=O)O | – | – | – | –
14 | – | – | – | – | 0.0066 nM | CCCCCCCCCCCCCC(=O)N[C@@H](CCC(=O)NCCCC[C@H](NC(=O)CC[C@H](NC(=O)CCCCCCCCCCCCC)C(=O)O)C(=O)NCCOCCOCC(=O)NCCOCCOCC(=O)O)C(=O)O | – | Active | Toxic | –
